{
  "source": "patent US20070203025A1",
  "about": "“Defoliant” (priority 2006, published 2007)",
  "key": {"[1]": {"tested_on": "Cotton plants of the cultivar \"Carmen\"", "experiment": "Regrowth of cotton plants, by weighing the newly formed leaf material", "type": "in vivo", "conditions": "dose 35 g of a.i./ha, 1 l/ha Actirob B added, weight of newly formed leaf material", "procedure": "(§1) A water application rate of 300 l/ha was initially charged. The components herbicide and adjuvant were then added with stirring at the application rates and in the manner stated in table 1, such that a homogeneous spray liquor was formed. Here, the active ingredients were employed as suspension concentrates. The adjuvant used was ®Actirob B (Novance).\n(§2) Cotton seeds of the cultivar “Carmen” were sown at a depth of 1 cm and cultivated in a climatized chamber (16 h of light, temperature during the day: 26° C., at night: 20° C.) until they had reached the 8-10 leaf stage.\nThe plants were treated on a laboratory spray track with spray liquors of thidiazuron and thidiazuron with combination partners. The water application rate for the spray application was 300 l/ha. After the treatment, the plants were returned to the climatized chamber.\n4 weeks after the application, the regrowth of the plants was assessed by weighing the newly formed leaf material."}, "[2]": {"tested_on": "Cotton plants of the cultivar \"Carmen\"", "experiment": "Leaf drop effect (defoliation) on cotton plants after spray application", "type": "in vivo", "conditions": "dose 35 g of a.i./ha, 1 l/ha Actirob B added, scale 0-100%", "procedure": "as §1, §2\nThe plants were treated on a laboratory spray track with spray liquors of thidiazuron and thidiazuron with combination partners. The water application rate for the spray application was 300 l/ha. […]\n2 weeks after the application, the leaf drop effect was evaluated according to a scale from 0 to 100%: • 0% =no noticeable effect compared to untreated plants • 100% =all leaves have dropped.\nOne week after the application, the leaf drop effect was evaluated according to a scale from 0 to 100%: • 0% =no noticeable effect compared to untreated plants • 100% =all leaves have dropped.\nOne week after the application, the leaf drop effect was evaluated according to a scale from 0 to 100%: • 0%=no noticeable effect compared to untreated plants • 100%=all leaves have dropped."}},
  "data": [
    {"smiles": "O=C(Nc1ccccc1)Nc1cnns1", "note": "[TDZ, thidiazuron]", "values": [
      {"measurement": "Regrowth [g] 4 weeks after application", "setting": "[1]; Table 1", "value": 3.3, "unit": "g"},
      {"measurement": "Regrowth [g] 4 weeks after application", "setting": "[1]; Table 3", "value": 2.4, "unit": "g"},
      {"measurement": "Leaf drop [%] 2 weeks after application", "setting": "[2]; Table 1, 100% = all leaves have dropped", "value": 35, "unit": "%"},
      {"measurement": "Leaf drop [%] 2 weeks after application", "setting": "[2]; Table 3", "value": 91, "unit": "%"}
    ]}
  ]
}
